The values that follow come from ChEMBL document CHEMBL1201862, “PubChem BioAssay data set” (2004).

Among the test systems are NCI-H23; HCT-15; CCRF-CEM; U-251; LOX IMVI; CAKI-1; K562; IGROV-1; SK-MEL-28; MOLT-4; NCI-H522; ACHN; SK-MEL-5; OVCAR-4; SK-MEL-2; RXF 393.
Holding throughout (assay): NCI anticancer screen, dose series, 48 h

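Tested at 5 concentrations; 48 h exposure; 96-well plates; endpoints linearly interpolated, else capped at highest concentration. GI50 marks 50% less growth.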 Active and inactive are the calls of the source. No stated cut-off is given here; in the data, active = GI50 up to about 1.1 µM and inactive = higher.

As for `O=S(=O)(SCCCCSS(=O)(=O)c1ccc(Cl)cc1)c1ccc(Cl)cc1`, the GI50 was 10.3 µM (inactive) in the test with NCI-H23; 13.4 µM with HCT-15; 1.85 µM (inactive) in the test with CCRF-CEM; 8.36 µM (inactive) with U-251; 3.39 µM (inactive) in the test with LOX IMVI; 12.7 µM (inactive) with CAKI-1. The GI50 in the test with K562 was 20 µM (inactive); in the test with IGROV-1, 5.2 µM (inactive); in the test with SK-MEL-28 it was 17.8 µM (inactive); in the test with MOLT-4 it was 2.73 µM (inactive); in the test with NCI-H522, 5.06 µM (inactive); with ACHN, 16.3 µM (inactive). For the same molecule, the GI50 in the test with SK-MEL-5 is 16.7 µM (inactive); in the test with OVCAR-4, 15.1 µM (inactive); in the test on SK-MEL-2, 14.9 µM (inactive); in the test with RXF 393, 16.7 µM (inactive).

As to `OCC(O)CNc1ccnc2cc(Cl)ccc12` (centres undefined), the GI50 in the test on NCI-H23 is > 100 µM (inactive); in the test on HCT-15, greater than 100 µM; in the test on CCRF-CEM it was > 100 µM (inactive); in the test with U-251, > 100 µM (inactive); in the test with LOX IMVI it was > 100 µM (inactive); in the test with CAKI-1, > 100 µM (inactive). The GI50 in the test on K562, in the test with IGROV-1, with SK-MEL-28, in the test with MOLT-4, in the test on NCI-H522 and in the test on ACHN was > 100 µM (inactive) throughout. Moreover, the GI50 in the test on SK-MEL-5, in the test on OVCAR-4, with SK-MEL-2 and with RXF 393 was > 100 µM (inactive) each time.

Regarding `O=C(NCc1cccnc1)C1COc2cc(-c3cc(=O)c4ccccc4o3)ccc2O1` (centres undefined), the GI50 in the test on NCI-H23 was 13.6 µM (inactive); with HCT-15, 77.3 µM; in the test with CCRF-CEM, > 100 µM (inactive); in the test with U-251, 5.93 µM (inactive); in the test on LOX IMVI, 3.38 µM (inactive); in the test with CAKI-1, > 63.7 µM (inactive). Besides, the GI50 in the test with K562 is > 80.2 µM (inactive); in the test with IGROV-1 it was > 66.5 µM (inactive); in the test with SK-MEL-28, 3.49 µM (inactive); in the test on MOLT-4, 5.14 µM (inactive); with NCI-H522, 10.7 µM (inactive); in the test with ACHN it was 22.5 µM (inactive). Further, the GI50 was 26.1 µM (inactive) with SK-MEL-5, 55.3 µM (inactive) with OVCAR-4, 3.4 µM (inactive) in the test with SK-MEL-2 and 28.7 µM (inactive) in the test on RXF 393.

For the molecule `CC(C)(C)C1CC[C@H]2c3c([nH]c4ccccc34)[C@H]3C(=O)N(c4ccc(F)cc4)C(=O)[C@H]3[C@H]2C1` (some centres undefined), the GI50 was 18.6 µM (inactive) in the test with NCI-H23; 20.7 µM with HCT-15; 16.7 µM (inactive) in the test with CCRF-CEM; 8.75 µM (inactive) with U-251; 20.3 µM (inactive) in the test on LOX IMVI; 17.9 µM (inactive) with CAKI-1. Besides, the GI50 in the test with K562 is 20.7 µM (inactive); in the test on IGROV-1, 17 µM (inactive); in the test with SK-MEL-28, 23.6 µM (inactive); in the test with MOLT-4, 13.2 µM (inactive); in the test with NCI-H522 it was 12.4 µM (inactive); in the test on ACHN it was 14.1 µM (inactive). In addition, the GI50 is 18.7 µM (inactive) in the test on SK-MEL-5, 11.2 µM (inactive) with OVCAR-4, 15.8 µM (inactive) in the test on SK-MEL-2 and 27.4 µM (inactive) in the test on RXF 393.

Consider `O=C(O/N=C1/CCCC/C1=C\c1ccccc1)c1ccc(Cl)c(Cl)c1`, for which the GI50 in the test on NCI-H23 was 19.2 µM (inactive); in the test on HCT-15, 33.3 µM; with CCRF-CEM it was 21.8 µM (inactive); with U-251, 17.3 µM (inactive); in the test on LOX IMVI, 20 µM (inactive); with CAKI-1 it was 27.3 µM (inactive). Moreover, the GI50 with K562 is 15.8 µM (inactive); in the test with IGROV-1, 21.5 µM (inactive); with SK-MEL-28 it was 18.3 µM (inactive); in the test on MOLT-4, 13.3 µM (inactive); in the test with NCI-H522, 18.4 µM (inactive); in the test with ACHN it was 15.5 µM (inactive). Also, the GI50 was 38.5 µM (inactive) in the test on SK-MEL-5, 20.7 µM (inactive) with OVCAR-4, > 100 µM (inactive) with SK-MEL-2 and 27.7 µM (inactive) with RXF 393.

`O=C(O/N=C1/CCC/C1=C\c1ccccc1)c1ccc(Cl)c(Cl)c1`: the GI50 is > 100 µM (inactive) in the test on NCI-H23; greater than 100 µM in the test on HCT-15; > 100 µM (inactive) with CCRF-CEM; > 100 µM (inactive) in the test on U-251; > 100 µM (inactive) with LOX IMVI; > 100 µM (inactive) in the test with CAKI-1. Moreover, the GI50 in the test with K562, in the test on IGROV-1, in the test on SK-MEL-28, in the test on MOLT-4, in the test with NCI-H522 and in the test with ACHN was > 100 µM (inactive) in each case. Further, the GI50 in the test on SK-MEL-5 was > 100 µM (inactive); in the test with OVCAR-4 it was 35 µM (inactive); in the test on SK-MEL-2 it was > 100 µM (inactive); with RXF 393, > 100 µM (inactive).

In the case of `Cc1cc(Cl)ccc1NC(=O)CC/C(CC(=O)C(C)C)=N\NC(=O)C[n+]1ccccc1`, the GI50 was > 100 µM (inactive) with NCI-H23; greater than 100 µM in the test with HCT-15; > 100 µM (inactive) in the test on CCRF-CEM; > 100 µM (inactive) in the test on U-251; > 100 µM (inactive) with LOX IMVI; > 100 µM (inactive) in the test with CAKI-1. Besides, the GI50 with K562, in the test on IGROV-1, with SK-MEL-28, in the test on MOLT-4, in the test with NCI-H522 and in the test with ACHN was > 100 µM (inactive) throughout. Moreover, the GI50 in the test with SK-MEL-5, in the test with OVCAR-4, in the test on SK-MEL-2 and with RXF 393 was > 100 µM (inactive) each time.

In the case of `COc1cccc(/C=C2\N=C(Cl)OC2=O)c1O`, the GI50 in the test on NCI-H23 was > 100 µM (inactive); in the test on HCT-15 it was greater than 100 µM; in the test with CCRF-CEM, > 55.3 µM (inactive); with U-251, > 85.9 µM (inactive); in the test on LOX IMVI, > 100 µM (inactive); in the test with CAKI-1 it was > 100 µM (inactive). Moreover, the GI50 with K562, with IGROV-1, with SK-MEL-28, in the test with MOLT-4, in the test on NCI-H522 and in the test with ACHN was > 100 µM (inactive) each time. Besides, the GI50 in the test with SK-MEL-5, with OVCAR-4, in the test with SK-MEL-2 and in the test with RXF 393 was > 100 µM (inactive) in each case.

As for `CCOC(=O)C(/N=N\c1ccc(S(N)(=O)=O)cc1)C(C)=O` (centres undefined), the GI50 with NCI-H23 is > 100 µM (inactive); in the test on HCT-15 it was greater than 100 µM; in the test on CCRF-CEM, > 100 µM (inactive); in the test with U-251, > 100 µM (inactive); with LOX IMVI, > 100 µM (inactive); in the test on CAKI-1, > 100 µM (inactive). For the same molecule, the GI50 in the test with K562, in the test on IGROV-1, with SK-MEL-28, in the test on MOLT-4, with NCI-H522 and with ACHN was > 100 µM (inactive) each time. The GI50 with SK-MEL-5, in the test on OVCAR-4, in the test on SK-MEL-2 and in the test with RXF 393 was > 100 µM (inactive) throughout.
